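Briefly, cells in 96-well plates were exposed to five compound concentrations for 48 h, and endpoints were estimated by linear interpolation. GI50: concentration for 50% inhibition of growth.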 The source made the active and inactive calls. Cut-off read from the data, not from the text of the source: active = GI50 up to about 1.1 µM and inactive = higher.
Assays:
Experiment in all cases: inhibition of tumour cell growth, NCI panel, 48 h
ACHN = tested on: ACHN
RPMI-8226 = tested on: RPMI-8226
BT-549 = tested on: BT-549
SNB-19 = tested on: SNB-19
SK-OV-3 = tested on: SK-OV-3
SN12C = tested on: SN12C
HCC 2998 = tested on: HCC 2998
DU-145 = tested on: DU-145
EKVX = tested on: EKVX
HCT-15 = tested on: HCT-15
MDA-N = tested on: MDA-N
OVCAR-3 = tested on: OVCAR-3
A498 = tested on: A498
786-0 = tested on: 786-0
OVCAR-8 = tested on: OVCAR-8
SF-268 = tested on: SF-268
MDA-MB-231 = tested on: MDA-MB-231
U-251 = tested on: U-251
COLO 205 = tested on: COLO 205
HL-60 = tested on: HL-60

| Structure (SMILES) | GI50 (ACHN) | GI50 (RPMI-8226) | GI50 (BT-549) | GI50 (SNB-19) | GI50 (SK-OV-3) | GI50 (SN12C) | GI50 (HCC 2998) | GI50 (DU-145) | GI50 (EKVX) | GI50 (HCT-15) | GI50 (MDA-N) | GI50 (OVCAR-3) | GI50 (A498) | GI50 (786-0) | GI50 (OVCAR-8) | GI50 (SF-268) | GI50 (MDA-MB-231) | GI50 (U-251) | GI50 (COLO 205) | GI50 (HL-60) |
| --- | --- | --- | --- | --- | --- | --- | --- | --- | --- | --- | --- | --- | --- | --- | --- | --- | --- | --- | --- | --- |
| CC(Oc1ccccc1Cl)C(=O)NN1C(=O)CSC1c1ccccc1 (configuration not stated) | > 100 µM (inactive) | 83 µM (inactive) | > 100 µM (inactive) | > 100 µM (inactive) | > 100 µM (inactive) | 74.6 µM (inactive) | > 100 µM (inactive) | > 100 µM (inactive) | > 100 µM (inactive) | > 100 µM | 57.8 µM (inactive) | > 100 µM (inactive) | > 100 µM (inactive) | 74.5 µM (inactive) | > 100 µM (inactive) | > 100 µM (inactive) | > 100 µM (inactive) | > 100 µM (inactive) | > 100 µM (inactive) | 28.2 µM (inactive) |
| O=C(CC(O)c1cccnc1)CC(O)c1cccnc1 (configuration not stated) | 17.8 µM (inactive) | 3.29 µM (inactive) | 11.7 µM (inactive) | 21.7 µM (inactive) | 17.5 µM (inactive) | 18.6 µM (inactive) | 3.82 µM (inactive) | 32.2 µM (inactive) | 20.9 µM (inactive) | 14.1 µM | 7.26 µM (inactive) | 14.7 µM (inactive) | 15.9 µM (inactive) | 16.3 µM (inactive) | 15.3 µM (inactive) | 25.5 µM (inactive) | 14.9 µM (inactive) | 16.5 µM (inactive) | 14.1 µM (inactive) | 3.17 µM (inactive) |
| CC(C)/C(Cl)=N\OC(=O)Nc1ccc(C#N)cc1 | 6.95 µM (inactive) | 2.56 µM (inactive) | 13.7 µM (inactive) | 18.3 µM (inactive) | 17.3 µM (inactive) | 13.7 µM (inactive) | 16.4 µM (inactive) | 18 µM (inactive) | 2.58 µM (inactive) | 10.5 µM | 6.01 µM (inactive) | 16.8 µM (inactive) | 14.5 µM (inactive) | 5.12 µM (inactive) | 16.7 µM (inactive) | 19.2 µM (inactive) | 14.6 µM (inactive) | 18 µM (inactive) | 1.79 µM (inactive) | 2.56 µM (inactive) |
| CC1(CO)OC(n2cnc3cncnc32)CC1O (configuration not stated) | > 100 µM (inactive) | > 100 µM (inactive) | > 100 µM (inactive) | > 100 µM (inactive) | > 100 µM (inactive) | > 100 µM (inactive) | > 100 µM (inactive) | > 100 µM (inactive) | > 100 µM (inactive) | > 100 µM | > 100 µM (inactive) | > 100 µM (inactive) | > 100 µM (inactive) | > 100 µM (inactive) | > 100 µM (inactive) | > 100 µM (inactive) | > 100 µM (inactive) | > 100 µM (inactive) | > 100 µM (inactive) | > 100 µM (inactive) |
| COc1cc2cc(C(=O)N3C[C@@H](CCl)c4c3cc(N)c3ccccc43)[nH]c2c(OC)c1OC | 0.00942 µM (active) | 0.0076 µM (active) | 0.0442 µM (active) | 0.00665 µM (active) | 0.00457 µM (active) | 0.00914 µM (active) | < 0.01 µM (active) | < 0.01 µM (active) | 0.231 µM (active) | 0.000579 µM | 0.000296 µM (active) | 0.00385 µM (active) | 0.00863 µM (active) | 0.103 µM (active) | 0.00451 µM (active) | 0.119 µM (active) | 0.00172 µM (active) | 0.00163 µM (active) | 0.0776 µM (active) | 0.00318 µM (active) |
| COc1cc2c(cc1OC)C1=C(C=O)c3ccc(OC)c(OC)c3C(O)N1CC2 (configuration not stated) | 28.2 µM (inactive) | 7.53 µM (inactive) | 22.2 µM (inactive) | 26.2 µM (inactive) | 65.8 µM (inactive) | 33.2 µM (inactive) | 13.2 µM (inactive) | 28.1 µM (inactive) | 21.6 µM (inactive) | 30.8 µM | 31.5 µM (inactive) | 39 µM (inactive) | 21.8 µM (inactive) | 35.2 µM (inactive) | – | 27.5 µM (inactive) | 16.3 µM (inactive) | 19.2 µM (inactive) | 20.7 µM (inactive) | 16.3 µM (inactive) |
| Clc1ccc(Cc2nc3cc(Cl)c(Cl)cc3n2CC2CCCN3CCCCC23)cc1Cl (configuration not stated) | 4.47 µM (inactive) | 4.13 µM (inactive) | 8.43 µM (inactive) | 2.9 µM (inactive) | 1.11 µM (active) | 4.13 µM (inactive) | 1.65 µM (inactive) | 4.79 µM (inactive) | 3.28 µM (inactive) | 4.76 µM | 4.79 µM (inactive) | 16 µM (inactive) | 8.17 µM (inactive) | 2.99 µM (inactive) | 6.32 µM (inactive) | 3.32 µM (inactive) | 3.27 µM (inactive) | 3.86 µM (inactive) | 1.94 µM (inactive) | 2.5 µM (inactive) |
| COc1ccc2c(c1)c(=Cc1ccc(N(C)C)cc1)c1cc(-c3ccccc3)[n+](C)n12 | 1.14 µM (inactive) | 0.182 µM (active) | 0.0182 µM (active) | 0.282 µM (active) | 0.447 µM (active) | 0.345 µM (active) | 0.324 µM (active) | 0.479 µM (active) | 0.255 µM (active) | 1.65 µM | 0.378 µM (active) | 0.23 µM (active) | 1.33 µM (inactive) | 0.423 µM (active) | 0.154 µM (active) | 0.226 µM (active) | 0.274 µM (active) | 0.301 µM (active) | 0.0246 µM (active) | 0.284 µM (active) |
| CN1CCC2(CC1)SC[C@H]1C(=O)N(c3ccc(Cl)cc3)C(=O)N12 | 25.9 µM (inactive) | > 100 µM (inactive) | > 100 µM (inactive) | > 100 µM (inactive) | > 100 µM (inactive) | > 100 µM (inactive) | > 100 µM (inactive) | > 100 µM (inactive) | > 100 µM (inactive) | 50.1 µM | > 100 µM (inactive) | > 100 µM (inactive) | 24.2 µM (inactive) | > 100 µM (inactive) | > 100 µM (inactive) | > 100 µM (inactive) | > 100 µM (inactive) | > 100 µM (inactive) | > 100 µM (inactive) | > 100 µM (inactive) |
| CCOC(=O)c1cc(-c2ccc(OC)c(OC)c2)cn1C | > 10 µM (inactive) | > 10 µM (inactive) | > 10 µM (inactive) | > 10 µM (inactive) | > 10 µM (inactive) | > 10 µM (inactive) | > 10 µM (inactive) | > 10 µM (inactive) | > 10 µM (inactive) | > 10 µM | > 10 µM (inactive) | > 10 µM (inactive) | > 10 µM (inactive) | > 10 µM (inactive) | > 10 µM (inactive) | > 10 µM (inactive) | > 10 µM (inactive) | > 10 µM (inactive) | > 10 µM (inactive) | > 10 µM (inactive) |
| COC1(OC)C2(Cl)C(Cl)=C(Cl)C1(Cl)C1COCC12 (configuration not stated) | > 100 µM (inactive) | > 72.4 µM (inactive) | > 100 µM (inactive) | > 100 µM (inactive) | > 100 µM (inactive) | > 100 µM (inactive) | > 100 µM (inactive) | 13.4 µM (inactive) | – | > 100 µM | > 20.4 µM (inactive) | > 100 µM (inactive) | > 100 µM (inactive) | > 100 µM (inactive) | > 100 µM (inactive) | > 100 µM (inactive) | > 100 µM (inactive) | > 44.5 µM (inactive) | > 100 µM (inactive) | > 61.4 µM (inactive) |
| CC12C(=O)OC(=O)C1(C)C1C=CC2O1 (configuration not stated) | > 100 µM (inactive) | > 100 µM (inactive) | > 100 µM (inactive) | 37.8 µM (inactive) | > 100 µM (inactive) | > 100 µM (inactive) | > 100 µM (inactive) | > 100 µM (inactive) | > 100 µM (inactive) | > 100 µM | > 100 µM (inactive) | 30.3 µM (inactive) | > 100 µM (inactive) | > 100 µM (inactive) | > 100 µM (inactive) | 59.7 µM (inactive) | 42.6 µM (inactive) | > 100 µM (inactive) | > 100 µM (inactive) | > 100 µM (inactive) |
| COc1ccc(NC(C)=O)cc1N1C(=O)/C(=C\c2cc(OC)c(OC)c(OC)c2)S(=O)(=O)C1c1ccccc1 (configuration not stated) | 70.5 µM (inactive) | 65.8 µM (inactive) | > 100 µM (inactive) | > 100 µM (inactive) | > 100 µM (inactive) | 50.8 µM (inactive) | > 100 µM (inactive) | 75 µM (inactive) | 23.5 µM (inactive) | 73.1 µM | 34.1 µM (inactive) | 60.3 µM (inactive) | > 100 µM (inactive) | 72.9 µM (inactive) | 59.4 µM (inactive) | – | 74.3 µM (inactive) | 46.8 µM (inactive) | 39 µM (inactive) | 19.3 µM (inactive) |
| Cc1cc2c(cc1C)[n+]([O-])c(C(=O)N1CCN(c3ccc([N+](=O)[O-])cc3)CC1)c(C)[n+]2[O-] | 2.84 µM (inactive) | > 100 µM (inactive) | 22.6 µM (inactive) | 64.9 µM (inactive) | 18.2 µM (inactive) | 63.7 µM (inactive) | 26.8 µM (inactive) | 29.5 µM (inactive) | 24.4 µM (inactive) | 77.6 µM | > 100 µM (inactive) | > 100 µM (inactive) | 27.2 µM (inactive) | 14.3 µM (inactive) | 27.5 µM (inactive) | 19 µM (inactive) | 21.8 µM (inactive) | 11.9 µM (inactive) | > 100 µM (inactive) | > 100 µM (inactive) |

From ChEMBL document CHEMBL1201862, “PubChem BioAssay data set” (2004)
